Legend:
[1] = Comparative HPPD stability: decomposition of mesotrione in the formulation acidified by various acids; assay type: physicochemical
Experimental: The final formulation is prepared by 134.4 grams of the S-metolachlor CS with 22.9 grams of water and under agitation adding 15.2 grams of the mesotrione millbase. This is followed by the addition of 152.7 grams of the Potassium Glyphosate concentrate and then 17.5 grams of the Rhodopol 23 pregel of the previous example. […]

[2] = Stability of mesotrione in chloroacetamides (Example 6, FIG. 1 and FIG. 2); assay type: physicochemical; conditions: in chloroacetamides (S-MOC=S-metolachlor)
Experimental: Experiments were conducted to look at the stability of mesotrione in chloroacetamides.

CS(=O)(=O)c1ccc(C(=O)C2C(=O)CCCC2=O)c([N+](=O)[O-])c1 [Mesotrione, 2-(2′-nitro-4′-methylsulphonylbenzoyl)-1,3-cyclohexanedione]
Percentage Decomposition of Mesotrione ([1]; Gluconic acid, 38 C., 1 MONTH): 4.30%
Percentage Decomposition of Mesotrione ([1]; Gluconic acid, 38 C., 1 WEEK): 1.59%
Percentage Decomposition of Mesotrione ([1]; Gluconic acid, 38 C., 2 MONTHS): 7.42%
Percentage Decomposition of Mesotrione ([1]; Gluconic acid, 38 C., 2 WEEKS): 1.77%
Percentage Decomposition of Mesotrione ([1]; Gluconic acid, 38 C., 3 MONTHS): 11.23%
Percentage Decomposition of Mesotrione ([1]; Gluconic acid, 38 C., 3 WEEKS): 3.00%
Percentage Decomposition of Mesotrione ([1]; Gluconic acid, 45 C., 1 MONTH): 10.22%
Percentage Decomposition of Mesotrione ([1]; Gluconic acid, 45 C., 1 WEEK): 1.75%
Percentage Decomposition of Mesotrione ([1]; Gluconic acid, 45 C., 2 MONTHS): 23.39%
Percentage Decomposition of Mesotrione ([1]; Gluconic acid, 45 C., 2 WEEKS): 4.91%
Percentage Decomposition of Mesotrione ([1]; Gluconic acid, 45 C., 3 MONTHS): 35.81%
Percentage Decomposition of Mesotrione ([1]; Gluconic acid, 45 C., 3 WEEKS): 6.77%
Percentage Decomposition of Mesotrione ([1]; Gluconic acid, 50 C., 1 MONTH): 26.24%
Percentage Decomposition of Mesotrione ([1]; Gluconic acid, 50 C., 1 WEEK): 5.91%
Percentage Decomposition of Mesotrione ([1]; Gluconic acid, 50 C., 2 MONTHS): 54.80%
Percentage Decomposition of Mesotrione ([1]; Gluconic acid, 50 C., 2 WEEKS): 11.61%
Percentage Decomposition of Mesotrione ([1]; Gluconic acid, 50 C., 3 DAYS): 3.26%
Percentage Decomposition of Mesotrione ([1]; Gluconic acid, 50 C., 3 MONTHS): 73.08%
Percentage Decomposition of Mesotrione ([1]; Gluconic acid, 50 C., 3 WEEKS): 17.40%
Percentage Decomposition of Mesotrione ([1]; Gluconic acid, −18 C., 6 MONTHS): −0.18%
Percentage Decomposition of Mesotrione ([1]; No acid, 38 C., 1 MONTH): 17.27%
Percentage Decomposition of Mesotrione ([1]; No acid, 38 C., 1 WEEK): 4.63%
Percentage Decomposition of Mesotrione ([1]; No acid, 38 C., 2 MONTHS): 25.52%
Percentage Decomposition of Mesotrione ([1]; No acid, 38 C., 2 WEEKS): 9.97%
Percentage Decomposition of Mesotrione ([1]; No acid, 38 C., 3 MONTHS): 31.02%
Percentage Decomposition of Mesotrione ([1]; No acid, 38 C., 3 WEEKS): 13.05%
Percentage Decomposition of Mesotrione ([1]; No acid, 45 C., 1 MONTH): 32.01%
Percentage Decomposition of Mesotrione ([1]; No acid, 45 C., 1 WEEK): 11.97%
Percentage Decomposition of Mesotrione ([1]; No acid, 45 C., 2 MONTHS): 49.76%
Percentage Decomposition of Mesotrione ([1]; No acid, 45 C., 2 WEEKS): 19.71%
Percentage Decomposition of Mesotrione ([1]; No acid, 45 C., 3 MONTHS): 62.57%
Percentage Decomposition of Mesotrione ([1]; No acid, 45 C., 3 WEEKS): 25.71%
Percentage Decomposition of Mesotrione ([1]; No acid, 50 C., 1 MONTH): 53.82%
Percentage Decomposition of Mesotrione ([1]; No acid, 50 C., 1 WEEK): 20.39%
Percentage Decomposition of Mesotrione ([1]; No acid, 50 C., 2 MONTHS): 77.94%
Percentage Decomposition of Mesotrione ([1]; No acid, 50 C., 2 WEEKS): 35.25%
Percentage Decomposition of Mesotrione ([1]; No acid, 50 C., 3 DAYS): 11.30%
Percentage Decomposition of Mesotrione ([1]; No acid, 50 C., 3 MONTHS): 88.38%
Percentage Decomposition of Mesotrione ([1]; No acid, 50 C., 3 WEEKS): 46.31%
Percentage Decomposition of Mesotrione ([1]; No acid, −18 C., 6 MONTHS): 1.07%
Percentage Decomposition of Mesotrione ([1]; Phosphoric acid, 38 C., 1 MONTH): 3.48%
Percentage Decomposition of Mesotrione ([1]; Phosphoric acid, 38 C., 1 WEEK): 1.30%
Percentage Decomposition of Mesotrione ([1]; Phosphoric acid, 38 C., 2 MONTHS): 5.08%
Percentage Decomposition of Mesotrione ([1]; Phosphoric acid, 38 C., 2 WEEKS): 1.09%
Percentage Decomposition of Mesotrione ([1]; Phosphoric acid, 38 C., 3 MONTHS): 7.65%
Percentage Decomposition of Mesotrione ([1]; Phosphoric acid, 38 C., 3 WEEKS): 1.40%
Percentage Decomposition of Mesotrione ([1]; Phosphoric acid, 45 C., 1 MONTH): 7.12%
Percentage Decomposition of Mesotrione ([1]; Phosphoric acid, 45 C., 1 WEEK): 1.87%
Percentage Decomposition of Mesotrione ([1]; Phosphoric acid, 45 C., 2 MONTHS): 14.59%
Percentage Decomposition of Mesotrione ([1]; Phosphoric acid, 45 C., 2 WEEKS): 2.43%
Percentage Decomposition of Mesotrione ([1]; Phosphoric acid, 45 C., 3 MONTHS): 23.48%
Percentage Decomposition of Mesotrione ([1]; Phosphoric acid, 45 C., 3 WEEKS): 3.13%
Percentage Decomposition of Mesotrione ([1]; Phosphoric acid, 50 C., 1 MONTH): 16.79%
Percentage Decomposition of Mesotrione ([1]; Phosphoric acid, 50 C., 1 WEEK): 2.93%
Percentage Decomposition of Mesotrione ([1]; Phosphoric acid, 50 C., 2 MONTHS): 36.38%
Percentage Decomposition of Mesotrione ([1]; Phosphoric acid, 50 C., 2 WEEKS): 7.09%
Percentage Decomposition of Mesotrione ([1]; Phosphoric acid, 50 C., 3 DAYS): 1.77%
Percentage Decomposition of Mesotrione ([1]; Phosphoric acid, 50 C., 3 MONTHS): 58.11%
Percentage Decomposition of Mesotrione ([1]; Phosphoric acid, 50 C., 3 WEEKS): 10.85%
Percentage Decomposition of Mesotrione ([1]; Phosphoric acid, −18 C., 6 MONTHS): 0.94%
Percentage Decomposition of Mesotrione ([1]; Toluene-sulfonic acid, 38 C., 1 MONTH): 2.81%
Percentage Decomposition of Mesotrione ([1]; Toluene-sulfonic acid, 38 C., 1 WEEK): 0.75%
Percentage Decomposition of Mesotrione ([1]; Toluene-sulfonic acid, 38 C., 2 MONTHS): 4.00%
Percentage Decomposition of Mesotrione ([1]; Toluene-sulfonic acid, 38 C., 2 WEEKS): 0.78%
Percentage Decomposition of Mesotrione ([1]; Toluene-sulfonic acid, 38 C., 3 MONTHS): 2.14%
Percentage Decomposition of Mesotrione ([1]; Toluene-sulfonic acid, 38 C., 3 WEEKS): 1.74%
Percentage Decomposition of Mesotrione ([1]; Toluene-sulfonic acid, 45 C., 1 MONTH): 5.85%
Percentage Decomposition of Mesotrione ([1]; Toluene-sulfonic acid, 45 C., 1 WEEK): 1.64%
Percentage Decomposition of Mesotrione ([1]; Toluene-sulfonic acid, 45 C., 2 MONTHS): 11.08%
Percentage Decomposition of Mesotrione ([1]; Toluene-sulfonic acid, 45 C., 2 WEEKS): 3.06%
Percentage Decomposition of Mesotrione ([1]; Toluene-sulfonic acid, 45 C., 3 MONTHS): 18.29%
Percentage Decomposition of Mesotrione ([1]; Toluene-sulfonic acid, 45 C., 3 WEEKS): 4.12%
Percentage Decomposition of Mesotrione ([1]; Toluene-sulfonic acid, 50 C., 1 MONTH): 13.91%
Percentage Decomposition of Mesotrione ([1]; Toluene-sulfonic acid, 50 C., 1 WEEK): 2.32%
Percentage Decomposition of Mesotrione ([1]; Toluene-sulfonic acid, 50 C., 2 MONTHS): 28.00%
Percentage Decomposition of Mesotrione ([1]; Toluene-sulfonic acid, 50 C., 2 WEEKS): 5.94%
Percentage Decomposition of Mesotrione ([1]; Toluene-sulfonic acid, 50 C., 3 DAYS): 2.11%
Percentage Decomposition of Mesotrione ([1]; Toluene-sulfonic acid, 50 C., 3 MONTHS): 44.55%
Percentage Decomposition of Mesotrione ([1]; Toluene-sulfonic acid, 50 C., 3 WEEKS): 9.69%
Percentage Decomposition of Mesotrione ([1]; Toluene-sulfonic acid, −18 C., 6 MONTHS): 0.05%
stability of mesotrione in chloroacetamides [2]: lack of stability

Reference: patent US9468213B2, “Herbicide formulation” (Syngenta Crop Protection LLC, priority 2008, dated 2016)
